Experimental data reported in patent publication US20130059812A1 (priority 2010, published 2013).

Experiments:
wild-type HBV = assay: microbe, parasite or virus in culture; format: cell-based, Hepatitis B virus (HBV); conditions: Huh-7 cells, 4th day of transfection, clevudine 0.9 μM
Description: About 20˜24 hours before the transfection, Huh-7 cell lines were maintained on 6-well plates to be 4×10^5 cells/well with 70˜80% confluence and then cultured. 2 hours before the transfection, the culture medium was removed from the stabilized cells and replaced with a serum-free medium containing clevudine, adefovir dipivoxil or a combined preparation of clevudine and adefovir dipivoxil in a predetermined dilution to be 2 mL/well. Using lipofectamine (Invitrogen), the cells were transfected with wild-type HBV DNA to be 2 μg per well. The concentration of antiviral agents was 0.9 μM of clevudine, 6.3 μM of adefovir dipivoxil, 0.9 μM+6.3 μM of clevudine+adefovir dipivoxil or 1.8 μM+6.3 μM of clevudine+adefovir dipivoxil. About 5 hours after the transfection, the culture medium was replaced with that treated with the antiviral agents, and then the medium was replaced every 24 hours.
On the 4th day of the transfection, the cells were washed with cold PBS and then collected. […]
Electrophoresis was carried out with the separated HBV DNA on 1% agarose gel, which was then transferred to a positively charged nylon membrane. […] An antiviral effect of the combined formulation of clevudine and adefovir dipivoxil was determined using phosphor imager compared with single treatment of clevudine or adefovir dipivoxil.

HBV = assay: Antiviral efficacy test in the treatment of chronic hepatitis B patients; format: in vivo; conditions: n=20 per group
Description: A total of 40 patients were divided into two groups, to one of which 30 mg of clevudine was administered daily for 24 weeks (group treated with clevudine only; n=20). To another group, a combined formulation of 30 mg of clevudine and 10 mg of adefovir dipivoxil was administered daily for 12 weeks, then administration of adefovir dipivoxil was stopped and only 30 mg of clevudine was administered daily for the remaining period (group treated with combined formulation of clevudine+adefovir dipivoxil; n=20).

[1] = test system: patient-derived rtM204I mutant virus; format: cell-based, Hepatitis B virus (HBV); conditions: untreated control group = 100%, Huh-7 cells, 4th day, clevudine 0.9 μM, adefovir dipivoxil 6.3 μM, combination 0.9 μM+6.3 μM
Description: About 20˜24 hours before the transfection, Huh-7 cell lines were maintained on 6-well plates to be 4×10^5 cells/well with 70˜80% confluence and then cultured. 2 hours before the transfection, the culture medium was removed from the stabilized cells and replaced with a serum-free medium containing clevudine, adefovir dipivoxil or a combined formulation of clevudine and adefovir dipivoxil in a predetermined dilution to be 2 mL/well. Using lipofectamine (Invitrogen), the cells were transfected with HBV mutant DNA to be 2 μg per well. The concentration of antiviral agents was 0.9 μM of clevudine, 6.3 μM of adefovir dipivoxil, 0.9 μM+6.3 μM of clevudine+adefovir dipivoxil or 1.8 μM+6.3 μM of clevudine+adefovir dipivoxil. About 5 hours after the transfection, the culture medium was replaced with that treated with the antiviral agents, and then the medium was replaced every 24 hours.
On the 4th day of the transfection, the cells were washed with cold PBS and then collected. The collected cells were lysed with cold Hepes lysis buffer (1% NP-40) and then centrifuged. The supernatant was treated with nuclease to remove DNA of the transfected cells. Core protein of capsid form was precipitated with 26% PEG solution. The capsid protein was removed by 0.5% SDS solution and Proteinase K and then HBV DNA in the capsid was separated. […]

Cc1cn([C@H]2O[C@@H](CO)[C@H](O)[C@H]2F)c(=O)[nH]c1=O [clevudine, 1-(2′-deoxy-2′-fluoro-β-L-arabinofuranosyl)thymine]
inhibition at 0.9 µM (wild-type HBV; Hepatitis B virus, concentration of the combination not stated, read-out: inhibition rate of wild-type HBV replication): 34.1%
rate of wild-type HBV replication (wild-type HBV; untreated control group = 100%, adefovir dipivoxil 6.3 μM, concentration of the combination not stated (0.9 μM+6.3 μM or 1.8 μM+6.3 μM)): 65.91%
number of HBV DNA copy (HBV; 12 weeks after the administration, 30 mg clevudine daily, or 30 mg clevudine + 10 mg adefovir dipivoxil daily): −2.67 log 10 copies/mL
number of HBV DNA copy (HBV; 24 weeks after the administration, 30 mg clevudine daily for 24 weeks, or combination for 12 weeks then only 30 mg clevudine daily): −4.15 log 10 copies/mL
rate of mutant virus replication [1]: 87.43%
